From US7482308B2, “Difluoromethanesulfonyl anilide derivatives useful as herbicides” (Bayer CropScience AG, priority 2004, dated 2009)

How the values were obtained:
Assay type in all cases: in vivo
[1] = tested on: transplanted rice (var. Nipponbare); test: Test for phytotoxicity to transplanted rice (Test Example 4); conditions: 60 g ai/ha, application 5 days after transplanting, examined 2 weeks after treatment
Description: The phytotoxicity to transplanted rice was evaluated under the conditions with more shallow planting depths than usual depth of 2 cm, simulating the severe condition for herbicides to cause rice injury in the paddy. In a greenhouse 2 to 2.5 leaf-stage of rice (var. Nipponbare) was transplanted at three different depths, in a 1000 cm^2 pot filled with paddy field soil. Then water was poured to a depth of about 2 to about 3 cm. Five days after transplanting, a prescribed, diluted solution of the formulation of each active compound, prepared in the same manner as the above-mentioned Test Example 1, was applied to the surface of water. After the treatment the water depth of 3 cm was maintained and the rice injury was examined after 2 weeks from the treatment. The rice injury was rated 100% in the case of complete death and as 0% in the case of no injury. In case of showing less than 20% injury, it is evaluated as practical as rice herbicide.

[2] = tested on: Scirpus juncoides Roxburgh; test: Test for residual effectiveness against paddy field weeds (Test Example 2); conditions: 60 g ai/ha; period of maintaining herbicidal effect of higher than 80%
Text: (§1) In a green house a 1000 cm^2 pot was filled with paddy field soil and water was poured to a depth of about 2 to 3 cm. A prescribed, diluted solution of the above-mentioned Test Example 1, was applied to the surface of water. After the prescribed time after the treatment (just after treatment, 1 week, 2 weeks, 3 weeks, 4 weeks, 5 weeks, 6 weeks and 7 weeks after treatment), seeds or tubers of the weeds to be tested Scirpus juncoides Roxburgh, Monochoria vaginalis Presi, annual broad-leaved weeds (Lindernia procumbens Philcox, Rotala indica Koehne, Elatine triandra Schk, Ammannia multiflora Roxb., etc.), Cyperus serotinus Rottboel and Sagittaria pygmaea Miq. were inoculated. Three weeks after the inoculation each herbicidal effect was examined.
(§2) The evaluation of the residual effectiveness was shown as the period (number of weeks) of maintaining herbicidal effect of higher than 80%, after the evaluation of herbicidal effect had been conducted in the similar manner as the above-mentioned Test Example 1.

[3] = tested on: annual broad-leaved weeds; test: as above; conditions: 60 g ai/ha; period of maintaining herbicidal effect of higher than 80%
Text: as §1, §2

Sagittaria pygmaea Miq. = test: as above; conditions: 60 g ai/ha; period of maintaining herbicidal effect of higher than 80%
Text: as §1, §2

[4] = tested on: Cyperus serotinus Rottboel; test: as above; conditions: 60 g ai/ha; period of maintaining herbicidal effect of higher than 80%
Text: as §1, §2

[5] = tested on: Monochoria vaginalis Presi; test: as above; conditions: 60 g ai/ha; period of maintaining herbicidal effect of higher than 80%
Text: as §1, §2

[6] = tested on: Scirpus juncoides Roxburgh; test: Test for herbicidal effect against paddy field weeds (Test Example 1); conditions: examined 3 weeks after treatment
Description: (§3) Preparation of Formulation of the Active Compound
(§4) • Carrier: DMF 5 parts by weight • Emulsifier: Benzyloxy polyglycol ether 1 part by weight
(§5) A formulation of an active compound is obtained as an emulsifiable concentrate by mixing 1 part by weight of the active compound with the above-mentioned amount of the carrier and emulsifier. A prescribed amount of the formulation is diluted with water.
(§6) In a green house seeds or tubers of Scirpus juncoides Roxburgh, Monochoria vaginalis Presi, annual broad-leaved weeds (Lindemia procumbens Philcox, Rotala indica Koehne, Elatine triandra Schk, Ammannia multiflora Roxb., etc.), Cyperus serotinus Rottboel were inoculated in a 500 cm^2 pot filled with paddy field soil. Then water was poured to a depth of about 2-3 cm. Five days and 13 days after inoculation, a prescribed, diluted solution of the formulation of each active compound, prepared according to the aforementioned preparation method, was applied to the surface of water. After the treatment the water depth of 3 cm was maintained and the herbicidal effect was examined after 3 weeks from the treatment.
(§7) The herbicidal effect was rated 100% in the case of complete death and as 0% in the case of no herbicidal effect. In case of showing higher than 80% herbicidal effect, it is evaluated as practical as herbicide.

[7] = tested on: annual broad-leaved weeds; test: as above; conditions: examined 3 weeks after treatment
Description: as §3, §4, §5, §6, §7

[8] = tested on: Cyperus serotinus Rottboel; test: as above; conditions: examined 3 weeks after treatment
Description: as §3, §4, §5, §6, §7

[9] = tested on: Monochoria vaginalis Presi; test: as above; conditions: examined 3 weeks after treatment
Description: as §3, §4, §5, §6, §7

[10] = tested on: sulfonylurea resistant Lindernia procumbens Philcox (collected in Kazo area, Saitama Pref.); test: Test for herbicidal effect against sulfonylurea resistant weeds (Test Example 3); conditions: applied at beginning of emergence, examined 3 weeks after treatment
Text: (§8) In a green house seeds of Scirpus juncoides Roxburgh (collected in Iwamizawa area, Hokkaido), Lindernia procumbens Philcox (collected in Kazo area, Saitama Pref.), Lindernia procumbens Philcox (collected in Higashi-Hiroshima area, Hiroshima Pref.), Elatine triandra Schk (collected in Kazo area, Saitama Pref.), all of which were confirmed as sulfonylurea resistant, were inoculated in a 20 cm^2 cup filled with paddy field soil. Then water was poured to a depth of about 2 to 3 cm. At the beginning of emergence of each weed, a prescribed, diluted solution of the formulation of each active compound prepared in the same manner as the above-mentioned Test Example 1 was applied to the surface of water. After the treatment the water depth of 3 cm was maintained and the herbicidal effect was examined after 3 weeks from the treatment. The evaluation of the herbicidal effect was conducted in the same manner as the above-mentioned Test Example 1. In case of showing higher than 80% herbicidal effect, it is evaluated as practical as herbicide. In consideration of the possibility that the biological properties including herbicide resistance of the plants grown in different areas might be different, sulfonylurea resistant Lindernia procumbens Philcox collected in two different areas were used in the present tests. The study results with the compounds No. 1, 3, 11 and 17 and the comparative compound No. C-1 as specific examples are shown in the following Table 6.

[11] = tested on: sulfonylurea resistant Elatine triandra Schk (collected in Kazo area, Saitama Pref.); test: as above; conditions: applied at beginning of emergence, examined 3 weeks after treatment
Text: as §8

[12] = tested on: sulfonylurea resistant Scirpus juncoides Roxburgh (collected in Iwamizawa area, Hokkaido); test: as above; conditions: applied at beginning of emergence, examined 3 weeks after treatment
Text: as §8

[13] = tested on: sulfonylurea resistant Lindernia procumbens Philcox (collected in Higashi-Hiroshima area, Hiroshima Pref.); test: as above; conditions: applied at beginning of emergence, examined 3 weeks after treatment
Text: as §8

[14] = 15 g ai/ha, application 5 days after inoculation
[15] = 15 g ai/ha, application 13 days after inoculation
[16] = 30 g ai/ha, application 5 days after inoculation
[17] = 30 g ai/ha, application 13 days after inoculation

COc1cc(OC)nc(C(O)c2cccc(F)c2NS(=O)(=O)C(F)(F)F)n1 (stereo not shown) [Compound C-1, reference compound]
phytotoxicity to transplanted rice depth 0.5 cm ([1]; planting depth 0.5 cm): 35% | phytotoxicity to transplanted rice depth 2 cm ([1]; planting depth 2 cm): 20% | period showing sufficient residual herbicidal effectiveness Scirpus juncoides [2]: 2 week | period showing sufficient residual herbicidal effectiveness broad-leaved weeds [3]: <1 week | period showing sufficient residual herbicidal effectiveness Sagittaria pygmaea (Sagittaria pygmaea Miq.): 1 week | period showing sufficient residual herbicidal effectiveness Cyperus serotinus [4]: 1 week | period showing sufficient residual herbicidal effectiveness Monochoria vaginalis [5]: <1 week | herbicidal effect Scirpus juncoides [6, 14]: 70% | herbicidal effect Scirpus juncoides [6, 15]: 60% | herbicidal effect Scirpus juncoides [6, 16]: 80% | herbicidal effect Scirpus juncoides [6, 17]: 70% | herbicidal effect broad-leaved weeds [7, 14]: 50% | herbicidal effect broad-leaved weeds [7, 15]: 40% | herbicidal effect broad-leaved weeds [7, 16]: 80% | herbicidal effect broad-leaved weeds [7, 17]: 60% | herbicidal effect Cyperus serotinus [8, 14]: 70% | herbicidal effect Cyperus serotinus [8, 15]: 60% | herbicidal effect Cyperus serotinus [8, 16]: 80% | herbicidal effect Cyperus serotinus [8, 17]: 60% | herbicidal effect Monochoria vaginalis [9, 14]: 60% | herbicidal effect Monochoria vaginalis [9, 15]: 50% | herbicidal effect Monochoria vaginalis [9, 16]: 80% | herbicidal effect Monochoria vaginalis [9, 17]: 60% | herbicidal effect against sulfonylurea resistant weeds Lindernia procumbens (collected in Kazo area, Saitama Pref.) ([10]; 30 g ai/ha): 40% | herbicidal effect against sulfonylurea resistant weeds Lindernia procumbens (collected in Kazo area, Saitama Pref.) ([10]; 60 g ai/ha): 60% | herbicidal effect against sulfonylurea resistant weeds Elatine triandra (collected in Kazo area, Saitama Pref.) ([11]; 30 g ai/ha): 60% | herbicidal effect against sulfonylurea resistant weeds Elatine triandra (collected in Kazo area, Saitama Pref.) ([11]; 60 g ai/ha): 70% | herbicidal effect against sulfonylurea resistant weeds Scirpus juncoides (collected in Iwamizawa area, Hokkaido) ([12]; 30 g ai/ha): 60% | herbicidal effect against sulfonylurea resistant weeds Scirpus juncoides (collected in Iwamizawa area, Hokkaido) ([12]; 60 g ai/ha): 70% | herbicidal effect against sulfonylurea resistant weeds Lindernia procumbens (collected in Higashi-Hiroshima area, Hiroshima Pref.) ([13]; 30 g ai/ha): 50% | herbicidal effect against sulfonylurea resistant weeds Lindernia procumbens (collected in Higashi-Hiroshima area, Hiroshima Pref.) ([13]; 60 g ai/ha): 80%
